Columns and labels:
Homo sapiens = organism: Homo sapiens; test: Selectivity ratio of IC50 for human eNOS to IC50 for human iNOS
Nitric oxide synthase 3 = molecular target: T1, Nitric oxide synthase 3 (Homo sapiens, UniProt P29474); test: Inhibition of eNOS in LPS treated human THP1 cell homogenate assessed as conversion of L-[2,3-3H]arginine to L-[2,3-3H]citrulline pre-incubated 1 hr before LPS challenge by whole cell assay; format: cell-based, THP-1
T1 sequence (P29474 whole entry): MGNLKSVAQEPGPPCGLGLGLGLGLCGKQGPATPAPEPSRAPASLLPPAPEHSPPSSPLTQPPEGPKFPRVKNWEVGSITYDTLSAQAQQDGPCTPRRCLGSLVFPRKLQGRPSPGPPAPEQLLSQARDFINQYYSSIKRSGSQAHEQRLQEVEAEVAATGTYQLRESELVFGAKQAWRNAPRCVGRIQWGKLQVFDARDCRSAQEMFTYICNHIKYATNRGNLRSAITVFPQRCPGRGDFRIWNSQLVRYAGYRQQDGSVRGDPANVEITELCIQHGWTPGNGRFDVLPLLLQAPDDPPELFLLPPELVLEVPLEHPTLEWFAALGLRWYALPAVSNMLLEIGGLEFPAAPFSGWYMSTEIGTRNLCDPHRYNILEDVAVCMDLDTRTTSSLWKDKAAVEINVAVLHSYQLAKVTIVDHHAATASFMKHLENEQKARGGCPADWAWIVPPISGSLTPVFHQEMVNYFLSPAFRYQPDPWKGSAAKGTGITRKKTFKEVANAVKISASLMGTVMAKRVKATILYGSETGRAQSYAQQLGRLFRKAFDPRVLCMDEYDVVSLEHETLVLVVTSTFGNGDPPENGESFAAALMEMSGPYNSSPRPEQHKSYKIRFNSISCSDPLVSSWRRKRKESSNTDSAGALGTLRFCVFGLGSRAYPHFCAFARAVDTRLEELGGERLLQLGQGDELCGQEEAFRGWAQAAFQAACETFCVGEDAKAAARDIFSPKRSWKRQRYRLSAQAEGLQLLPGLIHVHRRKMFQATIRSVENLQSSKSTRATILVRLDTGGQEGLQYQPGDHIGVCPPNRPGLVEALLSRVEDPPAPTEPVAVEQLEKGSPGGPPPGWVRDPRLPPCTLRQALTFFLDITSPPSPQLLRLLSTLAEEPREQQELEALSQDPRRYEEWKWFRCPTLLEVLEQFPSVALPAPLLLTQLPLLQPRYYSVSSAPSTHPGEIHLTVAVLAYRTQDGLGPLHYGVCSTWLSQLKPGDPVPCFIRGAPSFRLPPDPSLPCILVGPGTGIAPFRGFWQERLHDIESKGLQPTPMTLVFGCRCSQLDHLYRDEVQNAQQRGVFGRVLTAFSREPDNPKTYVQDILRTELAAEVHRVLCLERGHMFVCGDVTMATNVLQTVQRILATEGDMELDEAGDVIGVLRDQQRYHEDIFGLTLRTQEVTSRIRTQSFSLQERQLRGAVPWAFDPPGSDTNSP

[1] = molecular target: Nitric oxide synthase, inducible (Homo sapiens, UniProt P35228); test: Inhibition of iNOS in LPS treated human THP1 cell homogenate assessed as conversion of L-[2,3-3H]arginine to L-[2,3-3H]citrulline pre-incubated 1 hr before LPS challenge by whole cell assay; format: cell-based, THP-1
Chain of Nitric oxide synthase, inducible (P35228 whole entry): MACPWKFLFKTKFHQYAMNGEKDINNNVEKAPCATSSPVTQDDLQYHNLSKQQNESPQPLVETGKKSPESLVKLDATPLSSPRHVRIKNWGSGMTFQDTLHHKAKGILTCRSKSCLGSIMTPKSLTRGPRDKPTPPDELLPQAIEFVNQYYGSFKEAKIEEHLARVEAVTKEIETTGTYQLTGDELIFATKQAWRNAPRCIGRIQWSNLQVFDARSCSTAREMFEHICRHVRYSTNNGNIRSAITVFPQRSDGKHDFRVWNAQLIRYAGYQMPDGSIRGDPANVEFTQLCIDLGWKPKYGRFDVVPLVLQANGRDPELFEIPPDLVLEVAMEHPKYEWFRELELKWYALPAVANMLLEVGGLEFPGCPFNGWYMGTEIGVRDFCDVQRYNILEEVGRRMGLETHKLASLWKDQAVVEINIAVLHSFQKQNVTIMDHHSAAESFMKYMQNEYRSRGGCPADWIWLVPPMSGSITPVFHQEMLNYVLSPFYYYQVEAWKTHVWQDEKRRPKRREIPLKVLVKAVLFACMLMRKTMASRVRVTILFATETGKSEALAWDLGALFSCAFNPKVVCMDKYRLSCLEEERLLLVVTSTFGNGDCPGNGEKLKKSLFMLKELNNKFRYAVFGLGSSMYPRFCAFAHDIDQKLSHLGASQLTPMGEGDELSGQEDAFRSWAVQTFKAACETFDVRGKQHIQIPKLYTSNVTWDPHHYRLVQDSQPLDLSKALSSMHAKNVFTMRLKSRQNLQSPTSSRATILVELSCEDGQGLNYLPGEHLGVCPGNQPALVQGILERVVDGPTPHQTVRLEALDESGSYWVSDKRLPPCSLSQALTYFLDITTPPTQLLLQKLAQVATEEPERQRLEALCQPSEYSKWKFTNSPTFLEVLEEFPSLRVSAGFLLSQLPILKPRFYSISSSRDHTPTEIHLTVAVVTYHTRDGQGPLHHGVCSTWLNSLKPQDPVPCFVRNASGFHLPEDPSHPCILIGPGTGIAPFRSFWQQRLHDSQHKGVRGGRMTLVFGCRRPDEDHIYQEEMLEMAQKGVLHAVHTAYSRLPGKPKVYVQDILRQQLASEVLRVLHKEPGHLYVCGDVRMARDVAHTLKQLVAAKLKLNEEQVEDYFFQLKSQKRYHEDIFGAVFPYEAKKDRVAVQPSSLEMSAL

| Ratio IC50 (Homo sapiens) | IC50 (Nitric oxide synthase 3) [µM] | IC50 [1] [µM] | SMILES |
| --- | --- | --- | --- |
| 57 | 20 | 0.35 | CC(=N)NCc1cccc(CNCc2ccncc2)c1 |
| 320 | 80 | 0.25 | CCC(NC(C)=N)c1ccccc1 (racemic) |
| 360 | 90 | 0.25 | CCOC(=O)N1CCC(NC(C)=N)CC1 |
| 1750 | 350 | 0.2 | CC(=N)NCc1ccccc1 |
| 666 | 300 | 0.45 | CC(=N)N[C@@H](C)c1ccccc1 |
| 600 | 300 | 0.5 | CC(=N)NCc1cccc(CNS(=O)(=O)c2ccc(C)cc2)c1 |
